Experiments:
[1] = tested on: human lung cancer NCI-H460-Luc2; experiment: Lung cancer model, Experiment C: NCI-H460-Luc2 xenograft; type: in vivo, Crl:SHO-PrkdcscidHrhr mice; conditions: 20 mg/kg i.v. 6 times every second day, 29 day
Description: (§1) Tumor size was measured using electronic calliper, tumor volume was calculated using the formula: (a^2×b)/2, where a=shorter diagonal of the tumor (mm) and b=longer diagonal of the tumor (mm). Inhibition of tumor growth was calculated using the formula:
(§2) TGI[%](Tumor growth inhibition)=(WT/WC)×100−100%
(§3) wherein WT is the average tumor volume in the treatment group, and WC is the average tumor volume in the control group.
On day 0 Crl:SHO-Prkdc^scidHr^hr mice were grafted subcutaneously (s.c.) in the right side with 5×10^6 of NCI-H460-Luc2 cells suspended in 0.1 ml of HBSS buffer using syringe with a needle 0.5×25 mm (Bogmark). On the 11 day of the experiment mice were randomized to obtain the average size of tumors in the group of ˜100-120 mm^3 and assigned to treatment groups. The treatment groups were administered with the preparations of fusion protein of the invention of Ex. 11^a (40 mg/kg and 30 mg/kg), and rhTRAIL114-281 (20 mg/kg) as a comparison against formulation buffer (19 mM NaH2PO4, 81 mM Na2HPO4, 50 mM NaCl, 5 mM glutathione, 0.1 mM ZnCl2, 10% glycerol, pH 7.4) as a control. The preparations were administered intravenously (i.v) 6 times once daily every second day (in case of fusion protein of the invention of Ex. 11^a first administration at a dose 40 mg/kg and subsequent at 30 mg/kg. On the 29 day of the experiment mice were sacrificed by disruption of the spinal cord.

[2] = tested on: human colon cancer HCT116; experiment: Colon cancer model, Experiment A: HCT116 xenograft; type: in vivo, Crl:SHO-PrkdcscidHrhr mice; conditions: 20 mg/kg i.v. 6 times every second day, 32 day
Description: as §1, §2, §3
On day 0 Crl:SHO-Prkdc^scidHr^hr mice were grafted subcutaneously (s.c.) in the right side with 5×10^6 of HCT116 cells suspended in 0.1 ml of HBSS buffer using syringe with a needle 0.5×25 mm (Bogmark). On the 18 day of the experiment mice were randomized to obtain the average size of tumors in the group of −400 mm^3 and assigned to treatment groups. The treatment groups were administered with the preparations of fusion protein of the invention of Ex. 11^a (35 mg/kg), and rhTRAIL114-281 (20 mg/kg) as a comparison against formulation buffer (5 mM NaH2PO4, 95 mM Na2HPO4, 200 mM NaCl, 5 mM glutathione, 0.1 mM ZnCl2, 10% glycerol, 80 mM saccharose, pH 8.0) as a control. The preparations were administered intravenously (i.v) 6 times once daily every second day. On the 32 day of the experiment mice were sacrificed by disruption of the spinal cord.

Substance: rhTRAIL114-281: recombinant human soluble TRAIL, amino acids 114-281 of hTRAIL, used as comparative reference
- TGI (tumor growth inhibition) relative to the control [1]: 76%
- TGI (tumor growth inhibition) relative to the control [2]: 5.6%

From patent US20140377216A1, “ANTICANCER FUSION PROTEIN” (ADAMED SP. Z.O.O., priority 2011, published 2014)
